{
  "source": "patent US8952158B2",
  "about": "“Tricyclic compound and use thereof” (Ono Pharmaceutical Co., Ltd., priority 2004, dated 2015)",
  "key": {"Wistar male rat [1]": {"test_system": "Wistar male rat", "assay": "Competition experiment of MBR ligand (psychological stressor, number of dejection)", "type": "in vivo", "protocol": "Using a Wistar male rat, psychological stressor similar to that in Biological Example 2 described above was loaded. Each treatment group was set as follows: a medium was intravenously administered (treatment group 1), the compound of the present invention (the compound of Example 38) was intravenously administered at a dose of 0.1 mg/kg (treatment group 2), an MBR selective agonist (CB34) was intravenously administered at a dose of 1 mg/kg (treatment group 3), or after the compound of the present invention (the compound of Example 38) was intravenously administered at a dose of 0.1 mg/kg, an MBR selective agonist was intravenously administered at a dose of 0.1 mg/kg (treatment group 4). In each group, stressor loading was initiated 10 minutes after administration, and the number of dejection was counted one hour later (10 animals in each group)."}, "Wistar male rat [2]": {"test_system": "Wistar male rat", "assay": "Inhibitory action on abdominal pain in RCS loading model", "type": "in vivo", "conditions": "oral 1 mg/kg twice a day, RCS 4 days, balloon 0-1.2 mL, versus medium treatment group (FIG. 1)", "description": "A Wistar male rat (6 week old at being received) was anesthetized with pentobarbital sodium (Kyoritsu Seiyaku Corporation), its abdomen was incised and the abdominal muscle was exposed, and then Force Transducer (F-12IS-SL (STAR MEDICAL Ltd.)) was fitted. Penicillin was intramuscular administered after the operation, and a recuperative period of 5 days was set.\nDuring from AM 9:00 to PM 5:00 on a 1st day of the initiation of stress loading, the feeding environment temperature was alternately changed to 24° C. and 2° C. in an hour interval, and during from PM 5:00 to AM 9:00 in the next morning, the rat was fed under the environment of 2° C. […]\nAfter RCS was loaded for 4 days, abdominal pain evaluation was performed on a 5th day (10 to 12 animals in each group). […] Contraction of abdominal muscle for extension stimulation in each balloon liquid amount was recorded using the Chart software (Chart v5.0.2. (ADInstruments Inc.)) by passing the signal from the pressure transducer amplified by the amplifier (Windo Gragf (GOULD Inc.)) through the data collection system (PowerLab (ADInstruments Inc.)). During 5 minutes in which balloon extension stimulation was loaded, the number of signals from the pressure transducer in 3 minutes was counted, and the obtained number was regarded as the number of abdominal muscle contraction and set as the index of abdominal pain."}, "[3]": {"assay": "Oral absorbability of rat", "type": "in vivo", "conditions": "plasma; fasted SD male rat; oral 1 mg/kg vs intravenous 0.1 mg/kg; from AUC; read-out: Bioavailability (B.A.)", "protocol": "Using a fasted SD male rat (CHARLES RIVER LABORATORIES JAPAN, INC.), under the condition that the compound of the present invention (the compound of Example 38) was solubilized, the plasma concentration after administration in the tail vein at a dose of 0.1 mg/kg and the plasma concentration after gastric gavage administration at a dose of 1 mg/kg were measured. The blood was collected from a rat jugular vein under an unanesthetized condition 5, 15, and 30 minutes, and 1, 2, 3, 4, 6, and 8 hours after intravenous administration, and 15 and 30 minutes, and 1, 2, 3, 4, 6, and 8 hours after oral administration. Then the blood was centrifuged at 3000 rpm for 10 minutes and the supernatant was collected as plasma. The concentration of the compound in plasma was measured with LC/MS/MS (1100 HPLC System (Agilent Co. Ltd.), API 4000 (MDS SCIEX Ltd.)). From the obtained plasma concentration, an area under the curve (AUC, ngh/ml) and a maximum plasma concentration (Cmax, ng/mL) were calculated. In addition, Bioavailability (B.A.) of the compound of the present invention was calculated from AUC in oral administration and AUC in intravenous administration."}, "[4]": {"test_system": "male Sprague-Dawley (SD) rat", "assay": "Study on antistress effect (2): physical (restraint) stressor, number of dejection", "type": "in vivo", "conditions": "oral 1 mg/kg, 30 min before restraint; 60 minutes after initiation of stressor loading", "protocol": "Physical stressor was loaded using a male Sprague-Dawley (SD) rat (CHARLES RIVER LABORATORIES JAPAN, INC., 7 week old at being used) (Gastroenterology 1988; 94: pp. 611-622; Jpn. J. Phrmacol. 1998; 77: pp. 211-217). Thirty minutes after a medium (0.5% Tween 80 physiological saline) or the compound of the present invention (the compound of Example 38) was orally administered at a dose of 1 mg/kg, stressor loading was initiated by restraining both anterior branches of the rat with a binding band (Marvel Ltd.). Evaluation was performed by measuring the number of dejection 30 and 60 minutes after the initiation of stressor loading (15 animals in each group)."}, "MBR": {"target": "T1, MBR (Rattus norvegicus, UniProt P16257)", "T1 construct": "A Wistar male rat was decapitated and the whole brain was extirpated, and then the cerebellum was removed; from tissue; host or cells: Wistar male rat brain (cerebellum removed), crude membrane preparation", "assay": "Receptor binding experiment ([3H]PK11195 competition)", "conditions": "[3H]PK11195, rat membrana cerebri specimen; Cheng and Prusoff", "protocol": "Affinity of the compound of the present invention for MBR was measured using a rat membrana cerebri specimen. The measuring method of the present invention has improved measurement accuracy and measurement sensitivity so as to evaluate the compound of the present invention as follows. A Wistar male rat was decapitated and the whole brain was extirpated, and then the cerebellum was removed. For the rat membrana cerebri specimen used in the binding experiment, 50 mmol/L of an ice-cold Iris-hydrochloric acid buffer (pH 7.4) was added and it was homogenized and centrifuged. After the resulting deposit was washed, it was resuspended to be prepared to about 1 mg/ml. The binding experiment was conducted using [^3H]PK11195 as an MBR selective ligand.\nIn the case of calculating the all binding amount in a saturation experiment, the membrane specimen, [^3H]PK11195 at several concentrations, dimethyl sulfoxide (DMSO) in a final concentration of 0.5 vol %, and 50 mmol/L of a tris-hydrochloric acid buffer (pH 7.4) were mixed (all amount 200 μl), followed by incubation at room temperature for one hour. In the case of calculating the nonspecific binding amount, […] in a final concentration of 20 ptrnol/L was added instead of DMSO, followed by incubation for one hour. […] After the filter was dried, radioactivity was measured by a liquid scintillation counter. […]"}, "Wistar male rat [5]": {"test_system": "Wistar male rat", "assay": "Study on antistress effect (1): psychological stressor, number of dejection", "type": "in vivo", "conditions": "30 min before stressor, counted one hour later", "protocol": "Psychological stressor was loaded using a Wistar male rat (Brain Res. 1994; 641: pp. 21-28). Water was accumulated by the depth of about 10 cm in a container having a platform in the center. Thirty-minutes after a medium or the compound of the present invention (the compound of Example 38) was intravenously administered at a dose of 0.01 mg/kg or orally administered at a dose of 1 mg/kg, stressor loading was initiated, and one hour later, the number of dejection was counted (10 animals in each group). The rat administered the compound of the present invention and the rat to which the stress or was not loaded had little dejection after one hour."}},
  "data": [
    {"smiles": "CCCN(CCC)C(=O)c1c(-c2ccc(Cl)cc2)nc2cc(Cl)cc(Cl)n12", "note": "[CB34, 5,7-dichloro-2-(4-chlorophenyl)-3-dipropylaminocarbonylimidazo[1,2-a]pyridine, reference compound]", "values": [
      {"measurement": "the number of dejection: mean number", "setting": "Wistar male rat [1]; treatment group 3: intravenous 1 mg/kg, stressor 10 min after administration, counted one hour later", "result": 9.5}
    ]},
    {"smiles": "COc1cc(Cl)ccc1[C@H]1c2[nH]c3cccc(F)c3c2C2(CC2)CN1C(C)=O", "note": "[Example 38, (1S)-2-acetyl-1-(4-chloro-2-methoxyphenyl)-5-fluoro-1,2,3,9-tetrahydrospiro[β-carboline-4,1′-cyclopropane]]", "values": [
      {"measurement": "number of abdominal muscle contraction (index of abdominal pain)", "setting": "Wistar male rat [2]", "result": "significantly inhibited"},
      {"measurement": "bioavailability", "setting": "[3]", "result": 86.9, "unit": "%"},
      {"measurement": "the number of dejection: mean number", "setting": "Wistar male rat [1]; treatment group 2: intravenous 0.1 mg/kg, stressor 10 min after administration, counted one hour later", "result": 7.3},
      {"measurement": "the number of dejection: mean number", "setting": "Wistar male rat [1]; treatment group 4: Example 38 intravenous 0.1 mg/kg, then MBR selective agonist (CB34) intravenous 0.1 mg/kg", "result": 10.1},
      {"measurement": "the number of dejection: mean number", "setting": "[4]", "result": 7.5},
      {"measurement": "Ki", "setting": "MBR", "result": 0.08, "unit": "nM"},
      {"measurement": "the number of dejection: mean number", "setting": "Wistar male rat [5]; intravenous administration 0.01 mg/kg", "result": 8.2},
      {"measurement": "the number of dejection: mean number", "setting": "Wistar male rat [5]; oral administration 1 mg/kg", "result": 6.2}
    ]}
  ]
}
